# Structures can show the parent of a compound that is named as a salt. Where two headings read alike, the source gives them in different places.
# Legend:
# [1] = test system: IFNα-stimulated phosphorylated STAT1; assay: Assay of IFNα-stimulated phosphorylated STAT1 in hPBMC (flow cytometry, CD4+ T cells); format: cell-based, Human; conditions: IFN-α 1000 U/ml, pSTAT1 in CD4+ T cells
# Method: Human peripheral blood mononuclear cells (hPBMC) were plated at a cell density of 1×10^5 cells/well and placed in a 37° C. incubator for 90 minutes. Different concentrations of compounds were then added to the cells, wherein the concentration of each compound started from […] and was serially diluted 5-fold to a total of 8 concentrations. Compounds and cells were incubated at 37° C. for 30 minutes. IFN-α (1000 U/ml) was used to stimulate hPBMC, and then flow cytometry was used to detect the level of phosphorylated STAT1 in CD4+ T cells to evaluate the inhibitory activity of compounds on the IFN-α pathway.
# [2] = Pharmacokinetics of the compound in Balb/c mice; format: in vivo; conditions: mouse, plasma, male Balb/c mice, fasted; for AUC: read-out: AUC (exposure)
# Method: • Purpose of assay: To assay the pharmacokinetics of the compound in Balb/c mice • Assay materials: Male Balb/c mice, fasted
# The pharmacokinetic profiles of compound 1 in rodents after intravenous injection and oral administration were assayed using standard protocols.
# Acclimatization/quarantine of Balb/c mice was performed for at least 3 days after arrival at the facility. Upon completion of the acclimatization/quarantine, a veterinarian or designee examined the health status of the Balb/c mice to evaluate whether the animals were suitable for the assay study. All Balb/c mice were fasted overnight before administration and resumed feeding 4 hours after administration. In the assay, the candidate compound was formulated into a homogeneous solution and given to Balb/c mice via a single intravenous injection and oral administration. The intravenous vehicle was a clear solution of 80% polyethylene glycol 400/20% water and the oral vehicle was a homogeneous suspension of ethanol/vitamin E polyethylene glycol succinate/polyethylene glycol 300 (5/5/90). The animals were weighed before administration and the administered volume was calculated based on body weight. Whole blood samples were collected by means of jugular vein puncture within 24 hours. All blood samples were immediately transferred to labeled commercial centrifuge tubes containing K2-EDTA. After blood samples were collected, the blood samples were centrifuged at 3200 g for 10 minutes at 4° C. The supernatant plasma was aspirated, quickly placed on dry ice, and then stored at −60° C. or lower for LC-MS/MS analysis. The data of blood drug concentration-time were analyzed using the WinNonlin software package (Version 6.3 and above) using a non-compartmental model. Pharmacokinetic parameters were calculated, including (if data permitted), but not limited to, peak concentration (Cmax), time to peak (Tmax), elimination half-life (T 1/2), area under plasma concentration-time curve (AUC), mean retention time (MRT), bioavailability, etc.
# [3] = target: TYK2 protein (His-TVMV-TYK2 JH2 (575-869)) (Homo sapiens (Human), UniProt P29597); assay: Tyk2 JH2 enzymatic activity assay (HTRF, fluorescein-labeled kinase tracer); format: binding; conditions: 90 minutes at room temperature
# Method: The assay system was incubated at room temperature for 90 minutes. The resulting HTRF (homogeneous time-resolved fluorescence) signal, i.e., the ratio of the fluorescence intensity of the fluorescein acceptor (520 nm) and the terbium donor (495 nm) at the emission wavelength, was then measured on an Envision plate reader, and based on this, the IC50 value was calculated.
# Chain of TYK2 protein (His-TVMV-TYK2 JH2 (575-869)) (P29597 575-869, species assumed): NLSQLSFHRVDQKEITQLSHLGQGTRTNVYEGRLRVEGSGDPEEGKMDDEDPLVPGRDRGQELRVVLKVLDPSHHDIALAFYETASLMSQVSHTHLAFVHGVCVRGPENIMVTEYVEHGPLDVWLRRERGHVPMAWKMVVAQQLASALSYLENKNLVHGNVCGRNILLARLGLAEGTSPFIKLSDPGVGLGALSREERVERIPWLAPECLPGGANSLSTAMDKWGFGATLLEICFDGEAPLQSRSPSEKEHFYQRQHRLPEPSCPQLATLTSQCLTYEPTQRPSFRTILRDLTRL
IC50 [3],SMILES,other results
0.06 nM,[2H]C([2H])([2H])NC(=O)c1nnc(NC(=O)C2CC2)cc1Nc1cccc(-c2cnc(N=S(C)(C)=O)cn2)c1OC [Compound 2],"IC50 ([1]; Homo sapiens, CD4+ T): 0.2 nM"
0.03 nM,[2H]C([2H])([2H])NC(=O)c1cnc(NC(=O)C2CC2)cc1Nc1cccc(-c2cnc(N=S(C)(C)=O)cn2)c1OC [Compound 3],"IC50 ([1]; Homo sapiens, CD4+ T): 2.1 nM"
0.07 nM,CCC(=O)c1cnc(NC(=O)C2CC2)cc1Nc1cccc(-c2cnc(N=S(C)(C)=O)cn2)c1OC [Compound 4],"IC50 ([1]; Homo sapiens, CD4+ T): 0.6 nM"
0.07 nM,[2H]C([2H])([2H])CC(=O)c1cnc(NC(=O)C2CC2)cc1Nc1cccc(-c2cnc(N=S3(=O)CCOCC3)cn2)c1OC [Compound 5],
0.18 nM,[2H]C([2H])([2H])CC(=O)c1cnc(NC(=O)C2CC2)cc1Nc1cccc(-c2cnc(N=S3(=O)CCC3)cn2)c1OC [Compound 6],
0.06 nM,[2H]C([2H])([2H])CC(=O)c1cnc(Nc2ccccn2)cc1Nc1cccc(-c2cnc(N=S(C)(C)=O)cn2)c1OC [Compound 10],
0.11 nM,[2H]C([2H])([2H])CC(=O)c1cnc(Nc2ccc(F)cn2)cc1Nc1cccc(-c2cnc(N=S(C)(C)=O)cn2)c1OC [Compound 11],
0.12 nM,[2H]C([2H])([2H])CC(=O)c1cnc(Nc2cncc(C)n2)cc1Nc1cccc(-c2cnc(N=S(C)(C)=O)cn2)c1OC [Compound 13],
0.08 nM,[2H]C([2H])([2H])CC(=O)c1cnc(NC(=O)C2CC2)cc1Nc1cc(F)cc(-c2cnc(N=S(C)(C)=O)cn2)c1OC [Compound 15],
0.08 nM,[2H]C([2H])([2H])CC(=O)c1cnc(NC(=O)C2CC2)cc1Nc1nccc(-c2cnc(N=S(C)(C)=O)cn2)c1OC [Compound 16],
0.29 nM,COCC(=O)c1cnc(NC(=O)C2CC2)cc1Nc1cccc(-c2cnc(N=S(C)(C)=O)cn2)c1OC [Compound 17],
0.12 nM,COc1c(Nc2cc(NC(=O)C3CC3)ncc2C(=O)C2CC2)cccc1-c1cnc(N=S(C)(C)=O)cn1 [Compound 19],
0.13 nM,[2H]C([2H])([2H])CC(=O)c1cnc(NC(=O)NC2CC2)cc1Nc1cccc(-c2cnc(N=S(C)(C)=O)cn2)c1OC [Compound 23],
0.11 nM,[2H]C([2H])([2H])CC(=O)c1cnc(Nc2cc3cc[nH]c3cn2)cc1Nc1cccc(-c2cnc(N=S(C)(C)=O)cn2)c1OC [Compound 29],
0.31 nM,[2H]C([2H])([2H])CC(=O)c1cnc(NC(=O)C2CC3(CCC3)C2)cc1Nc1cccc(-c2cnc(N=S(C)(C)=O)cn2)c1OC [Compound 32],
0.3 nM,[2H]C([2H])([2H])CC(=O)c1cnc(NC(=O)C2CC3CCC2C3)cc1Nc1cccc(-c2cnc(N=S(C)(C)=O)cn2)c1OC (centres unmarked) [Compound 33],

# Continued, compound first:
SMILES,IC50 [3],other results
[2H]C([2H])([2H])CC(=O)c1cnc(NC(=O)C2CC2)cc1Nc1cccc(-c2cnc(N=S(C)(C)=O)cn2)c1OC [Compound 1],,"IC50 [1]: 1.1 nM; AUC ([2]; IV (1 mg/kg)): 9.38 µM·h; clearance ([2]; IV (1 mg/kg), read-out: Cl (clearance rate)): 3.39 mL/min/kg; half-life ([2]; IV (1 mg/kg), read-out: T1/2 (half-life) (converted)): 1.61 h; Vd ([2]; IV (1 mg/kg), read-out: Vd (volume of distribution)): 0.45 L/kg; AUC ([2]; PO (10 mg/kg)): 47.2 µM·h; Cmax ([2]; PO (10 mg/kg), read-out: Cmax (maximum concentration)): 13.4 µM; bioavailability ([2]; PO (10 mg/kg), read-out: F (bioavailability)): 51.4%; Tmax ([2]; PO (10 mg/kg), read-out: Tmax (time to peak concentration)): 0.75 h"
[2H]C([2H])([2H])CC(=O)c1cnc(NC(=O)C2CC2)cc1Nc1cccc(-c2cnc(N=S3(=O)CCCC3)cn2)c1OC [Compound 7],0.09 nM,
[2H]C([2H])([2H])CC(=O)c1cnc(NC(=O)C2CC2)cc1Nc1cccc(-c2cnc(N=S3(=O)CCN(C)CC3)cn2)c1OC [Compound 8],0.15 nM,"IC50 ([1]; Homo sapiens, CD4+ T): 0.4 nM"
[2H]C([2H])([2H])CC(=O)c1cnc(NC(=O)C2CC2)cc1Nc1cccc(-c2cnc(N=S(C)(C)=O)cn2)c1OC [Compound 9],0.07 nM,IC50 [1]: 0.5 nM
[2H]C([2H])([2H])CC(=O)c1cnc(Nc2cccc(C#N)n2)cc1Nc1cccc(-c2cnc(N=S(C)(C)=O)cn2)c1OC [Compound 12],0.05 nM,
[2H]C([2H])([2H])CC(=O)c1cnc(NC(=O)C2CCC2)cc1Nc1cccc(-c2cnc(N=S(C)(C)=O)cn2)c1OC [Compound 14],0.25 nM,
COc1c(Nc2cc(NC(=O)C3CC3)ncc2C(C)=O)cccc1-c1cnc(N=S(C)(C)=O)cn1 [Compound 18],0.09 nM,
[2H]C([2H])([2H])CC(=O)c1cnc(NC(=O)N2CCC2)cc1Nc1cccc(-c2cnc(N=S(C)(C)=O)cn2)c1OC [Compound 20],0.19 nM,
[2H]C([2H])([2H])CC(=O)c1cnc(NC(=O)C2CC2)cc1Nc1cc(C)cc(-c2cnc(N=S(C)(C)=O)cn2)c1OC [Compound 21],0.13 nM,
[2H]C([2H])([2H])CC(=O)c1cnc(NC(=O)C2CC2)cc1Nc1cc(OC)cc(-c2cnc(N=S(C)(C)=O)cn2)c1OC [Compound 22 hydrochloride],0.14 nM,
[2H]C([2H])([2H])CC(=O)c1cnc(NC(=O)C2CC2)cc1Nc1cccc(-c2cnc(N=S(=O)(CC)CC)cn2)c1OC [Compound 27],0.09 nM,
[2H]C([2H])([2H])CC(=O)c1cnc(NC(=O)c2cn[nH]c2)cc1Nc1cccc(-c2cnc(N=S(C)(C)=O)cn2)c1OC [Compound 28],0.17 nM,
[2H]C([2H])([2H])CC(=O)c1cnc(NC(=O)C23CC(C2)C3)cc1Nc1cccc(-c2cnc(N=S(C)(C)=O)cn2)c1OC [Compound 30],0.56 nM,
[2H]C([2H])([2H])CC(=O)c1cnc(NC(=O)C2C3COCC32)cc1Nc1cccc(-c2cnc(N=S(C)(C)=O)cn2)c1OC (centres unmarked) [Compound 31],0.34 nM,
[2H]C([2H])([2H])CC(=O)c1cnc(Nc2ccn(C)c(=O)c2)cc1Nc1cccc(-c2cnc(N=S(C)(C)=O)cn2)c1OC [Compound 35],0.76 nM,

# — US20240376093A1, “SULFOXIMINE COMPOUND AND USE THEREOF” (MEDSHINE DISCOVERY INC., priority 2021, published 2024)
